Assay results as given in US4663327A, “1-heteroaryl-4-aryl-pyrazolin-5-ones” (priority 1984, dated 1987).
Converted amounts (≈) assume the structure as drawn.

Experiments:
Leptosphaeria nodorum = Leptosphaeria nodorum test (wheat)/protective; type: in vivo; details: sprayed, evaluation 10 days after inoculation
Protocol: Leptosphaeria nodorum test (wheat)/protective Solvent: 100 parts by weight of dimethylformamide Emulsifier: 0.25 parts by weight of alkylaryl polyglycol ether To produce a suitable preparation of active compound, 1 part by weight of active compound is mixed with the stated amounts of solvent and emulsifier, and the concentrate is diluted with water to the desired concentration. To test for protective activity, young plants are sprayed with the preparation of active compound until dew-moist. After the spray coating has dried on, the plants are sprayed with a conidia suspension of Leptosphaeria nodorum. The plants remain for 48 hours in an incubation cabinet at 20° C. and 100% relative atmospheric humidity. The plants are placed in a greenhouse at a temperature of about 15° C. and a relative atmospheric humidity of about 80%. Evaluation is effected 10 days after the inoculation.

Coniophora puteana = experiment: MIC on fungi in agar; details: 336 h
Protocol: (§1) After storage for 2 weeks at 28° C. and 60 to 70% relative atmospheric humidity, the MIC is determined.

Chaetomium globosum = experiment: MIC on fungi in agar; details: 336 h
Protocol: as §1

Alternaria tenuis = experiment: MIC on fungi in agar; details: Alternaria alternata, 336 h
Protocol: as §1

Penicillium glaucum = experiment: MIC on fungi in agar; details: 336 h
Protocol: as §1

Phytophthora infestans = type: in vivo; details: tomato, sprayed, evaluation 3 days after inoculation
Cochliobolus sativus = Cochliobolus sativus test (barley)/protective; type: in vivo; details: sprayed, evaluation 7 days after inoculation
Protocol: Cochliobolus sativus test (barley)/protective Solvent: 100 parts by weight of dimethylformamide Emulsifier: 0.25 parts by weight of alkylaryl polyglycol ether To produce a suitable preparation of active compound, 1 part by weight of active compound is mixed with the stated amounts of solvent and emulsifier, and the concentrate is diluted with water to the desired concentration. To test for protective activity, young plants are sprayed with the preparation of active compound until dew-moist. After the spray coating has dried on, the plants are sprayed with a conidia suspension of Cochliobolus sativus. The plants remain in an incubation cabinet for 48 hours at 20° C. and 100% relative atmospheric humidity. The plants are placed in a greenhouse at a temperature of about 20° C. and a relative atmospheric humidity of about 80%. Evaluation is carried out 7 days after the inoculation.

Lentinus tigrinus = experiment: MIC on fungi in agar; details: 336 h
Protocol: as §1

Polyporus versicolor = experiment: MIC on fungi in agar; details: Trametes versicolor, 336 h
Protocol: as §1

Aureobasidium pullulans = experiment: MIC on fungi in agar; details: 336 h
Protocol: as §1

Sclerophoma pityophila = experiment: MIC on fungi in agar; details: Sydowia polyspora, 336 h
Protocol: as §1

Trichoderma viride = experiment: MIC on fungi in agar; details: 336 h
Protocol: as §1

Aspergillus niger = experiment: MIC on fungi in agar; details: 336 h
Protocol: as §1

Pyricularia oryzae [1] = type: in vivo; details: rice, soil watered 7 days before inoculation, disease infestation 4 days after inoculation
slime organisms = experiment: Action against slime organisms in Allen's nutrient solution (MIC); details: 504 h
Protocol: Substances according to the invention, dissolved in a small amount of acetone, are used in concentrations of, in each case, 0.1 to 100 mg/l in Allen's nutrient solution (Arch. Mikrobiol. 17, 34 to 53 (1952)), which contains, in 4 l of sterile water, 0.2 g of ammonium chloride, 4.0 g of sodium nitrate, 1.0 g of dipotassium hydrogen phosphate, 0.2 g of calcium chloride, 2.05 g of magnesium sulphate, 0.02 g of iron chloride and 1% of caprolactam. Shortly beforehand, the nutrient solution is infected with slime organisms (approx. 10^6 organisms/ml) which have been isolated from the spinning water circulations used in the manufacture of polyamide.

Botrytis cinerea = experiment: Botrytis test (BEAN)/protective; type: in vivo; details: sprayed, infected spots on leaves evaluated 3 days after inoculation
Protocol: Botrytis test (BEAN)/protective Solvent: 4.7 parts by weight of acetone Emulsifier: 0.3 parts by weight alkyl aryl polyglycol ether To produce a suitable preparation of active compound, 1 pat by weight of active compound is mixed with the stated amounts of solvent and emulsifier, and the concentrate is diluted with water to the desired concentration. To test for protective activity, young plants are sprayed with the preparation of active compound until dripping wet. After the spray coating has dried on, 2 small pieces of agar covered with Botrytis cinerea are placed on each leaf. The inoculated plants are placed in a darkened humidity chamber at 20° C. 3 days after the inoculation, the size of the infected spots on the leaves is evaluated.

Drechslera graminea = Drechslera graminea test (barley)/seed treatment; type: in vivo, Drechslera graminea (syn. Helminthosporium gramineum); details: seed dry dressing, about 3 weeks after sowing
Protocol: Drechslera […] (barley)/seed treatment (syn. Helminthosporium gramineum) The active compounds are used as dry dressings. These are prepared by extending the paticular active compound with a ground mineral to give a finely pulverulent mixture, which ensures uniform distribution on the seed surface. To apply the dressing, the infected seed is shaken with the dressing in a closed glass flask for 3 minutes. The seed is embedded in sieved, moist standard soil and is exposed to a temperature of 4° C. in closed Petri dishes in a refrigerator for 10 days. Germination of the barley, and possibly also of the fungus spores, is thereby initiated. 2 batches of 50 grains of the pregerminated barley are subsequently sown 3 cm deep in standard soil and are cultivated in a greenhouse at a temperature of about 18° C., in seedboxes which are exposed to light for 15 hours daily. About 3 weeks after sowing, the plants are evaluated for symptons of stripe disease.

Pyricularia oryzae [2] = type: in vivo; details: rice, sprayed, disease infestation 4 days after inoculation

Row | Structure (SMILES) | protective activity (Leptosphaeria nodorum) | MIC (Coniophora puteana) [µg/mL] | MIC (Chaetomium globosum) [µg/mL] | MIC (Alternaria tenuis) [µg/mL] | MIC (Penicillium glaucum) [µg/mL] | protective activity (Cochliobolus sativus) | MIC (Lentinus tigrinus) [µg/mL] | MIC (Polyporus versicolor) [µg/mL] | MIC (Aureobasidium pullulans) [µg/mL] | MIC (Sclerophoma pityophila) [µg/mL] | MIC (Trichoderma viride) [µg/mL] | MIC (Aspergillus niger) [µg/mL] | also measured
1 | O=c1c(-c2ccc(C(F)(F)F)cc2)c[nH]n1-c1ncccn1 [Example 100] | clearly superior activity compared with the prior art | 5 (≈ 16.3 µM) | 1 (≈ 3.27 µM) | 50 (≈ 163 µM) | 10 (≈ 32.7 µM) | clearly superior activity compared with the prior art | 15 (≈ 49 µM) | 5 (≈ 16.3 µM) | 50 (≈ 163 µM) | 20 (≈ 65.3 µM) | 500 (≈ 1630 µM) | 500 (≈ 1630 µM) | protective activity (Phytophthora infestans): clearly superior activity compared with the prior art
2 | Cc1cccc(-c2c[nH]n(-c3ncccn3)c2=O)c1 [Example 97] | – | 2 (≈ 7.93 µM) | 1 (≈ 3.96 µM) | 50 (≈ 198 µM) | 10 (≈ 39.6 µM) | – | 10 (≈ 39.6 µM) | 5 (≈ 19.8 µM) | 50 (≈ 198 µM) | 20 (≈ 79.3 µM) | 75 (≈ 297 µM) | 10 (≈ 39.6 µM) | systemic activity (Pyricularia oryzae [1]): clearly superior activity compared with the prior art
3 | O=c1c(-c2cccc(OC(F)(F)F)c2)c[nH]n1-c1ncccn1 [Example 92] | – | – | – | – | – | clearly superior activity compared with the prior art | – | – | – | – | – | – | protective activity (Phytophthora infestans): clearly superior activity compared with the prior art
4 | O=c1c(-c2ccccc2)c[nH]n1-c1ccccn1 [Example 4, 1-pyrid-2-yl-4-phenyl-pyrazolin-5-one] | – | 5 (≈ 21.1 µM) | 1.5 (≈ 6.32 µM) | 50 (≈ 211 µM) | 10 (≈ 42.1 µM) | – | 75 (≈ 316 µM) | 35 (≈ 148 µM) | 100 (≈ 421 µM) | 10 (≈ 42.1 µM) | 200 (≈ 843 µM) | 7.5 (≈ 31.6 µM) | MIC (slime organisms): 15 µg/mL (≈ 63.2 µM)
5 | O=c1c(-c2ccccc2F)c[nH]n1-c1ccccn1 [Example 5] | clearly superior activity compared with the prior art | 2 (≈ 7.84 µM) | 0.5 (≈ 1.96 µM) | 20 (≈ 78.4 µM) | 5 (≈ 19.6 µM) | clearly superior activity compared with the prior art | 20 (≈ 78.4 µM) | 7.5 (≈ 29.4 µM) | 20 (≈ 78.4 µM) | 15 (≈ 58.8 µM) | 35 (≈ 137 µM) | 3.5 (≈ 13.7 µM) | –
6 | Cc1ccc(-c2c[nH]n(-c3ccccn3)c2=O)cc1 [Example 23] | – | 35 (≈ 139 µM) | 0.5 (≈ 1.99 µM) | 75 (≈ 298 µM) | 5 (≈ 19.9 µM) | – | 75 (≈ 298 µM) | 3.5 (≈ 13.9 µM) | 50 (≈ 199 µM) | 20 (≈ 79.6 µM) | 1000 (≈ 3980 µM) | 7.5 (≈ 29.8 µM) | MIC (slime organisms): 7.5 µg/mL (≈ 29.8 µM)
7 | O=c1c(-c2ccc(Cl)cc2)c[nH]n1-c1ccccn1 [Example 9] | clearly superior activity compared with the prior art | – | – | – | – | clearly superior activity compared with the prior art | – | – | – | – | – | – | –
8 | Cc1[nH]n(-c2ncccn2)c(=O)c1-c1ccccc1 [Example 106] | clearly superior activity compared with the prior art | – | – | – | – | – | – | – | – | – | – | – | –
9 | O=c1c(-c2ccc(Cl)c(Cl)c2)c[nH]n1-c1ccccn1 [Example 13] | – | – | – | – | – | – | – | – | – | – | – | – | protective activity (Phytophthora infestans): clearly superior activity compared with the prior art
10 | O=c1c(-c2ccc(SC(F)(F)F)cc2)c[nH]n1-c1ncccn1 [Example 94] | – | – | – | – | – | – | – | – | – | – | – | – | systemic activity (Pyricularia oryzae [1]): clearly superior activity compared with the prior art; protective activity (Botrytis cinerea): clearly superior activity compared with the prior art
11 | O=c1c(-c2cccc(C(F)(F)F)c2)c[nH]n1-c1ccccn1 [Example 24] | clearly superior activity compared with the prior art | – | – | – | – | clearly superior activity compared with the prior art | – | – | – | – | – | – | –
12 | O=c1c(-c2ccc(SC(F)(F)F)cc2)c[nH]n1-c1ccccn1 [Example 19] | clearly superior activity compared with the prior art | – | – | – | – | – | – | – | – | – | – | – | –
13 | Cc1ccccc1-c1c[nH]n(-c2ccccn2)c1=O [Example 21] | – | 5 (≈ 19.9 µM) | 0.75 (≈ 2.98 µM) | 10 (≈ 39.8 µM) | 7.5 (≈ 29.8 µM) | clearly superior activity compared with the prior art | 50 (≈ 199 µM) | 7.5 (≈ 29.8 µM) | 35 (≈ 139 µM) | 35 (≈ 139 µM) | 50 (≈ 199 µM) | 7.5 (≈ 29.8 µM) | systemic activity (Pyricularia oryzae [1]): clearly superior activity compared with the prior art; protective activity (Botrytis cinerea): clearly superior activity compared with the prior art; activity, symptoms of stripe disease (Drechslera graminea): clearly superior activity compared with the prior art
14 | O=c1c(-c2ccc(OC(F)(F)F)cc2)c[nH]n1-c1ncccn1 [Example 93] | – | – | – | – | – | – | – | – | – | – | – | – | protective activity (Phytophthora infestans): clearly superior activity compared with the prior art
15 | COc1ccc(-c2c[nH]n(-c3ccccn3)c2=O)cc1 [Example 15] | clearly superior activity compared with the prior art | 5 (≈ 18.7 µM) | 0.5 (≈ 1.87 µM) | 50 (≈ 187 µM) | 75 (≈ 281 µM) | – | 50 (≈ 187 µM) | 20 (≈ 74.8 µM) | 50 (≈ 187 µM) | 50 (≈ 187 µM) | 1000 (≈ 3740 µM) | 20 (≈ 74.8 µM) | –
16 | O=c1c(-c2ccc(OC(F)(F)F)cc2)c[nH]n1-c1ccccn1 [Example 18] | clearly superior activity compared with the prior art | – | – | – | – | clearly superior activity compared with the prior art | – | – | – | – | – | – | systemic activity (Pyricularia oryzae [1]): clearly superior activity compared with the prior art
17 | O=c1c(-c2cccc3ccccc23)c[nH]n1-c1ncccn1 [Example 105] | – | – | – | – | – | – | – | – | – | – | – | – | protective activity (Pyricularia oryzae [2]): clearly superior activity compared with the prior art; protective activity (Phytophthora infestans): clearly superior activity compared with the prior art; systemic activity (Pyricularia oryzae [1]): clearly superior activity compared with the prior art
18 | O=c1c(-c2ccc(F)cc2)c[nH]n1-c1ncccn1 [Example 83] | – | 5 (≈ 19.5 µM) | 3.5 (≈ 13.7 µM) | 50 (≈ 195 µM) | 20 (≈ 78.1 µM) | – | 50 (≈ 195 µM) | 35 (≈ 137 µM) | 50 (≈ 195 µM) | 5 (≈ 19.5 µM) | 75 (≈ 293 µM) | 15 (≈ 58.5 µM) | MIC (slime organisms): 35 µg/mL (≈ 137 µM)
19 | O=c1c(-c2cc(C(F)(F)F)cc(C(F)(F)F)c2)c[nH]n1-c1ccccn1 [Example 28] | clearly superior activity compared with the prior art | – | – | – | – | clearly superior activity compared with the prior art | – | – | – | – | – | – | protective activity (Pyricularia oryzae [2]): clearly superior activity compared with the prior art
20 | O=c1c(-c2cc(C(F)(F)F)ccc2Cl)c[nH]n1-c1ncccn1 [Example 102] | – | – | – | – | – | – | – | – | – | – | – | – | protective activity (Pyricularia oryzae [2]): clearly superior activity compared with the prior art; protective activity (Phytophthora infestans): clearly superior activity compared with the prior art; systemic activity (Pyricularia oryzae [1]): clearly superior activity compared with the prior art; protective activity (Botrytis cinerea): clearly superior activity compared with the prior art
21 | O=c1c(-c2ccc(Cl)cc2Cl)c[nH]n1-c1ccccn1 [Example 12] | – | – | – | – | – | clearly superior activity compared with the prior art | – | – | – | – | – | – | protective activity (Botrytis cinerea): clearly superior activity compared with the prior art
22 | O=c1c(-c2cc(C(F)(F)F)ccc2Cl)c[nH]n1-c1ccccn1 [Example 26] | clearly superior activity compared with the prior art | – | – | – | – | clearly superior activity compared with the prior art | – | – | – | – | – | – | –
